Read-outs that look alike come from different tables or passages of the source.
Tests used:
T. cruzi epimastigotes = assay: Trypanocidal activity against T. cruzi epimastigotes (XTT); type: cell-based, Trypanosoma cruzi; settings: for IC50: read-out: T. cruzi IC50; for selectivity ratio at 72 h: mouse (RAW 264.7 cells) / Trypanosoma cruzi (epimastigotes), read-out: T. cruzi SI (selectivity index, cytotoxicity/anti-protozoal activity)
Description: Trypanocidal activity was determined according to Muelas-Serrano with some modifications. […] Benznidazol (3.1–100 μg/mL) was used as the control drug. Assays were performed in triplicates.

[1] = test system: L. brasiliensis promastigotes; assay: Leishmanicidal activity against L. brasiliensis promastigotes (XTT); settings: for IC50: read-out: L. brasiliensis IC50
Description: (§1) Evaluations against Leishmania parasites: Promastigotes of Leishmania-Leishmania: L. amazonensis, Clone 1, NHOM-BR-76-LTB-012 (Lma, donated by the Paul Sabatier Université, France) and Leishmania-Viannia: L. braziliensis M2904 C192 RJA (M2904, donated by Dr. Jorge Arévalo from Universidad Peruana Cayetano Heredia, Peru). All strains were cultured in Schneider’s insect medium, (pH 6.2) supplemented with 10% FBS and incubated at 26 °C. Medium changes were made every 72 h to maintain a viable parasitic population. Leishmanicidal activity was determined according to Williams with some modifications. Samples were dissolved in DMSO (maximum final concentration 1%) at 10 mg/mL. Promastigotes in logarithmic phase of growth, at the concentration 3 × 10^6 parasites/mL, were distributed (100 μL/well) in 96-well flat bottom microtiter plates. Samples with different concentrations (3.1–100 μg/mL) were added (100 μL). […] Assays were performed in triplicates. The microwell plates were incubated for 72 h at 26 °C. After incubation, a solution of XTT (1 mg/mL) in PBS (pH 7.0 at 37 °C) with PMS (0.06 mg/mL) was added (50 μL/well), and incubated for 3 h at 26 °C. The optical density of each well was measured and the IC50 values calculated.

[2] = test system: L. amazoniensis promastigotes; assay: Leishmanicidal activity against L. amazoniensis promastigotes (XTT); settings: for IC50: read-out: L. amazoniensis IC50
Description: as §1, with “All” for “Evaluations against Leishmania parasites: Promastigotes of Leishmania-Leishmania: L. amazonensis, Clone 1, NHOM-BR-76-LTB-012 (Lma, donated by the Paul Sabatier Université, France) and Leishmania-Viannia: L. braziliensis M2904 C192 RJA (M2904, donated by Dr. Jorge Arévalo from Universidad Peruana Cayetano Heredia, Peru). All”

[3] = test system: Raw 264.7 murine macrophage cell line; assay: Cytotoxicity in RAW cells (Resazurin); type: cell-based; settings: RAW cells, 72 h at 37 °C, Resazurin, triplicate
Description: (§2) Evaluations against RAW cells: The Raw 264.7 murine macrophage cell line was purchased from the American Type Culture Collection (ATCC-TIB71). The cells were maintained in DMEM-HG medium supplemented with 10% fetal bovine serum, 100 U/mL of penicillin and 100 μg/mL of streptomycin, and sodium bicarbonate (2.2 g/L) in humidified atmosphere at 37 °C with 5% CO2. Samples were prepared as described above and added (in 100 μL DMSO) at different concentrations (6.2–200 μg/mL). Medium blank, control drugs and cell growth controls were included to evaluate cell viability. The plates were incubated for 72 h at 37 °C with 5% CO2. After incubation for the indicated time, the cells were washed, after which 10 μL of Resazurin reagent (2.0 mM) was added. They were further incubated at 37 °C for 3 h in a humidified incubator. The IC50 values were assessed using a fluorometric reader (540 nm excitation, 590 nm emission) and the Gen5 software. All assays were performed in triplicate.

[4] = Cytotoxicity in RAW cells (Resazurin); type: cell-based, murine; settings: mouse
Description: as §2

[5] = test system: promastigotes of L. mexicana; set-up: method as in doi:10.1016/j.phytol.2009.10.002; settings: not part of this investigation; cited from earlier work
[6] = promastigotes, 72 h at 26 °C, XTT, triplicates
[7] = Trypanosoma cruzi, epimastigotes, 72 h at 26 °C, XTT, triplicates
[8] = L. brasiliensis SI (selectivity index, cytotoxicity/anti-protozoal activity), RAW cell IC50 / L. brasiliensis IC50
[9] = L. amazoniensis SI (selectivity index, cytotoxicity/anti-protozoal activity), RAW cell IC50 / L. amazoniensis IC50
[10] = RAW cells, 72 h at 37 °C, Resazurin, triplicate, read-out: Cytotoxicity IC50

Row | Molecule | T. cruzi SI (selectivity index, cytotoxicity/anti-protozoal activity) (T. cruzi epimastigotes; RAW cell IC50 / T. cruzi IC50) | IC50 (T. cruzi epimastigotes; epimastigotes, 72 h at 26 °C, XTT, triplicates) [µM] | L. brasiliensis SI (selectivity index, cytotoxicity/anti-protozoal activity) ([1]; RAW cell IC50 / L. brasiliensis IC50) | IC50 [1, 6] [µM] | L. amazoniensis SI (selectivity index, cytotoxicity/anti-protozoal activity) ([2]; RAW cell IC50 / L. amazoniensis IC50) | IC50 [2, 6] [µM] | IC50 [3] [µM] | IC50 (T. cruzi epimastigotes; [7]) [µM] | selectivity ratio at 72 h (T. cruzi epimastigotes; RAW cell IC50 / T. cruzi IC50) | IC50 ([1]; 72 h) [µM] | selectivity ratio at 72 h [1, 8] | selectivity ratio at 72 h [2, 9] | IC50 ([2]; Leishmania amazonensis, 72 h) [µM] | IC50 at 72 h [4] [µM] | selectivity ratio at 72 h [1] | selectivity ratio at 72 h [2] | IC50 at 72 h [4, 10] [µM] | IC50 (T. cruzi epimastigotes; Trypanosoma cruzi, 72 h) [µM] | IC50 [5] [µM]
1 | 2-Methoxy-6,6-dimethyl-9-(((4-methoxypentyl)oxy)methyl)-6H-benzo[c]chromene [3e] | 3.5 | 9 ± 0.6 | 0.3 | 127 ± 11.3 | 1.1 | 28.2 ± 8.5 | 31.6 ± 5.6 | – | – | – | – | – | – | – | – | – | – | – | –
2 | CCCC(=O)OCc1ccc2c(c1)-c1cc(OC)ccc1OC2(C)C [4d, (2-Methoxy-6,6-dimethyl-6H-benzo[c]chromen-9-yl)methyl butyrate] | – | – | – | – | – | – | – | 16.2 ± 3.2 | 6.4 | 57.8 ± 2.4 | 1.8 | 1.3 | 79.3 ± 9.4 | 103 ± 35.3 | – | – | – | – | –
3 | COc1ccc2c(c1)-c1cc(COC(=O)CC(C)C)ccc1C(C)(C)O2 [4e, (2-Methoxy-6,6-dimethyl-6H-benzo[c]chromen-9-yl)methyl 3-methylbutanoate] | – | – | – | – | – | – | – | 4.2 ± 1.1 | 6.7 | 13.1 ± 0.4 | 2.2 | 1.9 | 14.5 ± 0.1 | 28.2 ± 9 | – | – | – | – | –
4 | COc1ccc2c(c1)-c1cc(COC(=O)CC(C)(C)C)ccc1C(C)(C)O2 [4f, (2-Methoxy-6,6-dimethyl-6H-benzo[c]chromen-9-yl)methyl 3,3-dimethylbutanoate] | – | – | – | – | – | – | – | 5.7 ± 0.3 | 3.3 | 20 ± 4.2 | 1 | 1 | 19.5 ± 0.8 | 19 ± 3 | – | – | – | – | –
5 | CCCCCC(=O)OCc1ccc2c(c1)-c1cc(OC)ccc1OC2(C)C [4g, (2-Methoxy-6,6-dimethyl-6H-benzo[c]chromen-9-yl)methyl hexanoate] | – | – | – | – | – | – | – | 22.8 ± 5.7 | 2.3 | 27.7 ± 0.3 | – | – | 42.3 ± 8.7 | – | 1.9 | 1.2 | 52.1 ± 8.1 | – | –
6 | COc1ccc2c(c1)-c1cc(COC(=O)CCC3CCCC3)ccc1C(C)(C)O2 [4h, (2-Methoxy-6,6-dimethyl-6H-benzo[c]chromen-9-yl)methyl 3-cyclopentylpropanoate] | – | – | – | – | – | – | – | 8.4 ± 3.3 | 6.1 | 122 ± 27.9 | – | – | 30.9 ± 3 | 50.7 ± 17.7 | 0.4 | 1.6 | – | – | –
7 | COc1ccc2c(c1)-c1cc(COC(=O)C3CCCCC3)ccc1C(C)(C)O2 [4i, (2-Methoxy-6,6-dimethyl-6H-benzo[c]chromen-9-yl)methyl cyclohexanecarboxylate] | – | – | – | – | – | – | – | 13.1 ± 0.5 | 3.9 | 24.3 ± 0.8 | – | – | 40.5 ± 8.7 | 51.3 ± 8.2 | 2.1 | 1.3 | – | – | –
8 | C=CC(=O)OCc1ccc2c(c1)-c1cc(OC)ccc1OC2(C)C [4j, (2-Methoxy-6,6-dimethyl-6H-benzo[c]chromen-9-yl)methyl acrylate] | – | – | – | – | – | – | – | 7.4 ± 0.9 | > 5 | 5.7 ± 0.5 | > 5 | > 5 | 6.9 ± 1.7 | 40.1 ± 12.6 | – | – | – | – | –
9 | COc1ccc2c(c1)-c1cc(COC(=O)c3ccco3)ccc1C(C)(C)O2 [4k, (2-Methoxy-6,6-dimethyl-6H-benzo[c]chromen-9-yl)methyl furan-2-carboxylate] | – | – | – | – | – | – | – | 3.8 ± 0.3 | 7.9 | 12.8 ± 0.1 | 2.4 | 2.4 | 12.8 ± 1.8 | 30.5 ± 3.6 | – | – | – | – | –
10 | COc1ccc2c(c1)-c1cc(COC(=O)c3ccccc3)ccc1C(C)(C)O2 [4l, (2-Methoxy-6,6-dimethyl-6H-benzo[c]chromen-9-yl)methyl benzoate] | – | – | – | – | – | – | – | 5.9 ± 0.5 | 4.7 | 21 ± 4.3 | 1.3 | 1.3 | 21.9 ± 7.7 | 27.8 ± 10.7 | – | – | – | – | –
11 | COc1ccc2c(c1)-c1cc(C=O)ccc1C(C)(C)O2 [5a, 2-Methoxy-6,6-dimethyl-6H-benzo[c]chromene-9-carbaldehyde] | – | – | – | – | – | – | – | 24.2 ± 4.1 | 1.6 | 24.2 ± 7.5 | 1.6 | 1.3 | 29.8 ± 11.2 | 38.8 ± 3.7 | – | – | – | – | –
12 | COc1ccc2c(c1)-c1cc(C(C)=O)ccc1C(C)(C)O2 [5b, 1-(2-Methoxy-6,6-dimethyl-6H-benzo[c]chromen-9-yl)ethan-1-one] | – | – | – | – | – | – | – | 21.2 ± 9.2 | 1.5 | 28.3 ± 7.1 | 1.1 | 0.7 | 43.2 ± 8.2 | 31.9 ± 7.1 | – | – | – | – | –
13 | COc1ccc2c(c1)-c1cc(C(=O)O)ccc1C(C)(C)O2 [5c, 2-Methoxy-6,6-dimethyl-6H-benzo[c]chromene-9-carboxylic acid] | – | – | – | – | – | – | – | 56.3 | 4.4 | 65.1 ± 16.5 | 3.8 | 1.2 | 199 | 246 ± 24.6 | – | – | – | – | –
14 | COC(=O)c1ccc2c(c1)-c1cc(OC)ccc1OC2(C)C [5d, Methyl 2-Methoxy-6,6-dimethyl-6H-benzo[c]chromene-9-carboxylate] | – | – | – | – | – | – | – | 31.8 ± 2.4 | 1.2 | 18.4 ± 5.7 | 2.1 | 0.7 | 59 ± 1.3 | 38.2 ± 2.7 | – | – | – | – | –
15 | COc1ccc2c(c1)-c1cc(C(N)=O)ccc1C(C)(C)O2 [5e, 2-Methoxy-6,6-dimethyl-6H-benzo[c]chromene-9-carboxamide] | – | – | – | – | – | – | – | 134 ± 38.8 | 0.4 | 145 ± 43.1 | 0.3 | 0.4 | 121 ± 21.2 | 49.8 ± 17.7 | – | – | – | – | –
16 | COc1ccc2c(c1)-c1cc(CO)ccc1C(C)(C)O2 [compound 1, (2-methoxy-6,6-dimethyl-6H-benzo[c]chromen-9-yl)methanol] | – | – | – | – | – | – | – | – | 1.7 | 59.2 ± 11.8 | – | – | 77.7 ± 5.6 | – | 0.5 | 0.4 | 30.7 ± 1.1 | 18.5 ± 9.6 | 17
17 | COc1ccc2c(c1)-c1cc(C(=N)NO)ccc1C(C)(C)O2 [compound 6, N-hydroxy-2-methoxy-6,6-dimethyl-6H-benzo[c]chromene-9-carboximidamide] | – | – | – | – | – | – | – | 33.4 ± 14.9 | 0.8 | 52 ± 18.6 | 0.5 | 0.5 | 52 ± 16.7 | 26.4 ± 1.5 | – | – | – | – | –
